This is an account of results in US8293481B2, “Biomarkers for chronic vascular dysfunction” (Mayo Foundation for Medical Education and Research, priority 2006, dated 2012).

The subject of experiment [1] is Sprague-Dawley rats, LAD ligation infarct model of CHF. In words: Left ventricular function by transthoracic echocardiography (fractional shortening) in rat infarct model of CHF. It is filed as in vivo. The conditions noted are these: 2 weeks post-infarction; captopril 2 g/l in drinking water; uninfarcted 56%, placebo 29%. The text has this:
After intubation, rats were ventilated continuously (room air) using a small animal ventilator (Model 683, Harvard Apparatus, Holliston, Mass.). A left lateral thoracotomy incision was made along the 5th intercostal space and after the pericardium was opened, the heart was exteriorized using a retention suture placed at the apex. The left anterior descending coronary artery (LAD) was ligated twice using 6-0 prolene suture (Ethicon, Cornelia, Ga.). After chest closure with running 3-0 vicryl suture (Ethicon), rats were put in a recovery chamber with a heating pad and warming light. The post-operative survival rate reached 80%. […] Rats were fed a standard diet of Teklad rodent feed (Harlan) ad libitum and kept on a 12:12 h light-dark cycle. Rats were sacrificed at designated time intervals of 2 weeks and 4 weeks after surgery. […] Cardiac function was estimated using fractional shortening (FS) obtained from the EDD and ESD in the parasternal long axis view and calculated as FS=((EDD-ESD)/EDD)×100%.

A further experiment relates to Agt (angiotensinogen). The experiment in a line: Real-time PCR gene expression in aorta post MI. Particulars: 4 weeks post-infarction (increased at 2 weeks), FIG. 1. It is filed as in vivo, rat. An excerpt:
(§1) After intubation, rats were ventilated continuously (room air) using a small animal ventilator (Model 683, Harvard Apparatus, Holliston, Mass.). A left lateral thoracotomy incision was made along the 5th intercostal space and after the pericardium was opened, the heart was exteriorized using a retention suture placed at the apex. The left anterior descending coronary artery (LAD) was ligated twice using 6-0 prolene suture (Ethicon, Cornelia, Ga.). After chest closure with running 3-0 vicryl suture (Ethicon), rats were put in a recovery chamber with a heating pad and warming light. The post-operative survival rate reached 80%. […] Rats were fed a standard diet of Teklad rodent feed (Harlan) ad libitum and kept on a 12:12 h light-dark cycle. Rats were sacrificed at designated time intervals of 2 weeks and 4 weeks after surgery. […] Isolation of total RNA: […] Surrounding peri-adventitial tissues, fat, and endothelium were then carefully cleaned away and removed. The remaining vascular smooth muscle was then frozen with liquid nitrogen, pulverized into fine powder, and resuspended in 600 μl of Buffer RLT with β-ME (10 μl β-ME: 1 ml Buffer RLT, Qiagen, Valencia, Calif.). The lysate was pipetted directly onto a QIAshredder spin column (Qiagen) placed in a 2 ml collection tube and centrifuged for 5 minutes at 14000 rpm, 4° C. The supernatant was transferred to a new microcentrifuge tube and 1 volume of 70% ethanol was added and mixed. The cleared lysate was then transferred to an RNeasy mini-column (Qiagen) placed in a 2 ml collection tube and spun for 15 seconds at ≧10,000 rpm, 4° C. The flow-through was discarded and 700 μl of Buffer RW1 (Qiagen) was added to the RNeasy column. After the column was spun for 15 seconds at ≧10,000 rpm (4° C.), it was transferred into a new 2 ml collection tube, washed, spun twice with 500 μl Buffer RPE (Qiagen), and eluted with 40 μl of RNase-free water using a microcentrifuge (≧10,000 rpm, 4° C.) for 1 minute. Final RNA samples were stored at -20° C. to prevent degradation. Confirmation of microarray result by quantitative real-time PCR: The remaining RNA from the aortic or portal vein RNA sample was quantitatively converted to single stranded cDNA using the High-Capacity cDNA Archive Kit (Applied Biosystems, Foster City, Calif.). Briefly, 50 μl of RNA sample was mixed with 50 μl of 2×RT master mix (10 μl of 10× Reverse Transcription Buffer, 4 μl of 25× dNTPs, 10 μl of 10× random primers, 5 μl of […] Reverse Transcriptase at 50 U/μl, 21 μl of RNase-free H2O) and pipetted into 0.2 ml MICROAMP® PCR Reaction Tubes with Caps (Applied Biosystems, Foster City, Calif.). Reverse transcription was performed using a thermal cycler (Eppendorf Mastercycler gradient) with incubation conditions set at 25° C. for 10 minutes followed by 37° C. for 120 minutes. The synthesized cDNA was then mixed with TAQMAN® Universal PCR Master Mix (2.5 μl of cDNA+47.5 μl of RNase-free H2O+50 μl of Master Mix) and loaded onto 384-Well micro fluid cards for quantitative real-time PCR (TAQMAN® Low Density Arrays, Applied Biosystems). This was done with customer-selected TAQMAN® Gene Expression Assays preloaded into each of the 384 wells. The 7900 HT Gene Expression Micro Fluid Card Configuration 2 (Applied Biosystems) with a total of 24 targets was used; 22 targets were selected to include the results from the microarray study, and the remaining two targets were controls GAPDH and 18S controls. For each cDNA sample, four replicates were analyzed for real-time PCR. After all ports of the Micro Fluidic Card were loaded with cDNA, it was spun for even distribution into the wells using a Sorvall Legend centrifuge (1 minute at 1200 rpm). The array was then run on the Applied Biosystems 7900HT Fast Real-time PCR System, and the data were analyzed using an Applied Biosystems RQ Manager Software (SDS 2.1). […]

Experiment [2] deals with Baat (bile acid-Coenzyme A amino acid N-acyltransferase). In words: Real-time PCR gene expression in aorta post MI. It is filed as in vivo, rat. Particulars: 2 weeks post-infarction.
Description: as §1
A general note: Quantitative PCR measures a nucleic acid by following its amplification.

The subject of experiment [3] is Cxcl12 (chemokine (C-X-C motif) ligand 12). The experiment in a line: Real-time PCR gene expression in aorta post MI. Type of experiment: in vivo, rat. Particulars: 4 weeks post-infarction (increased at 2 weeks), FIG. 1.
Description: as §1

Experiment [4] concerns Fmr1 (fragile X mental retardation syndrome 1 homolog). The experiment in a line: Real-time PCR gene expression in aorta post MI. Type of experiment: in vivo, rat. Particulars: 2 weeks post-infarction.
Description: as §1

For experiment [5], the system named is Gls2 (glutaminase 2 (liver, mitochondrial)). The experiment in a line: Real-time PCR gene expression in aorta post MI. It is filed as in vivo, rat. The conditions noted are these: 2 weeks post-infarction.
Description: as §1

In experiment [6] the test system is IL-1β (interleukin 1 beta). In words: Real-time PCR gene expression in aorta post MI. Type of experiment: in vivo, rat. Particulars: 2 weeks post-infarction.
Description: as §1

The test system of experiment [7] is MIR16 (membrane interacting protein of RGS16). In words: Real-time PCR gene expression in aorta post MI. Particulars: 4 weeks post-infarction (increased at 2 weeks), FIG. 1. It is filed as in vivo, rat.
Description: as §1

For experiment [8], the system named is Raf1 (v-raf-1 murine leukemia viral oncogene homolog 1). The experiment in a line: Real-time PCR gene expression in aorta post MI. It is filed as in vivo, rat. Particulars: 2 weeks post-infarction.
Description: as §1

The subject of a further experiment is Rock2 (Rho kinase 2). In words: Real-time PCR gene expression in aorta post MI. The conditions noted are these: 2 weeks post-infarction. It is filed as in vivo, rat.
Description: as §1

Another experiment relates to Taok1 (TAO kinase 1). The experiment in a line: Real-time PCR gene expression in aorta post MI. Type of experiment: in vivo, rat. Particulars: 2 weeks post-infarction.
Description: as §1

With `C[C@H](CS)C(=O)N1CCC[C@H]1C(=O)O` [Captopril, 1-[(2S)-3-mercapto-2-methylpropionyl]-L-proline], in experiment [1], the “fractional shortening (FS)” value amounted to 38%. The “Agt expression, captopril versus placebo” value with Agt (angiotensinogen) is on record as “difference disappeared”. In addition, the “Baat expression, placebo or captopril therapy” value in experiment [2] is “did not demonstrate any difference”. For the same molecule, in experiment [3], the “Cxcl12 expression, captopril versus placebo” value was “difference disappeared”. In addition, in [4], the “Fmr1 expression, placebo or captopril therapy” value is “did not demonstrate any difference”. Also, in experiment [5], the “Gls2 expression, placebo or captopril therapy” value is listed as “did not demonstrate any difference”. Also, in experiment [6], the “IL1-β expression, placebo or captopril therapy” value is on record as “did not demonstrate any difference”. Also, the “MIR16 expression, captopril versus placebo” value in experiment [7] is given as “difference disappeared”. Further, the “Raf1 expression, placebo or captopril therapy” value in experiment [8] is listed as “did not demonstrate any difference”. Moreover, the “Rock2 expression, placebo or captopril therapy” value in the experiment with Rock2 (Rho kinase 2) is on record as “did not demonstrate any difference”. Also, the “Taok1 expression, placebo or captopril therapy” value in the experiment on Taok1 (TAO kinase 1) is listed as “did not demonstrate any difference”.
